Assay results as given in US11267836B2, “Methods for producing ferric maltol compositions from ligand modified and ligand coated ferric hydroxides” (Shield TX (UK) Limited, priority 2016, dated 2022).

Legend:
[1] = Dissolution in ethanol (check for ferric hydroxide in ferric trimaltol); settings: for dissolution of ferric trimaltol powder in ethanol: powders produced as per Examples 1 and 2 dissolved in ethanol, complete dissolution confirms absence of iron hydroxides
Protocol: As such ferric trimaltol powders produced as per Examples 1 and 2 were dissolved in ethanol.

[2] = test system: IBD patients; settings: in vivo; cited from earlier work
[3] = in vivo; cited from earlier work

Compound | dissolution of ferric trimaltol powder in ethanol [1] | solubility in ethanol [1] | tolerability [2] | absorption [3]
Cc1occc(=O)c1[O-].Cc1occc(=O)c1[O-].Cc1occc(=O)c1[O-].[Fe+3] [Example 1] | did not |  |  | 
Cc1occc(=O)c1[O-].Cc1occc(=O)c1[O-].Cc1occc(=O)c1[O-].[Fe+3] [Example 2] | dissolved completely |  |  | 
Cc1occc(=O)c1[O-].Cc1occc(=O)c1[O-].Cc1occc(=O)c1[O-].[Fe+3] [Ferric trimaltol, ferric trimaltol] |  | soluble in ethanol | well tolerated | well absorbed
